Laboratory results reported in patent US9970935B2, “Uses of GLI1 in detecting tissue fibrosis” (THE BRIGHAM AND WOMEN'S HOSPITAL, INC., priority 2014, dated 2018).
“Also recorded” adds a separate entry of the source.

Assays:
[1] = system: Gli1+ MSC; test: Myofibroblast differentiation of Gli1+ MSC in vitro upon TGF-β; format: cell-based, mouse; conditions: for αSMA expression: Gli1+ MSC from bone marrow / bone chips or heart
[2] = system: lung; conditions: in vivo; cited from earlier work
[3] = system: 10T1/2 cells; test: Flow cytometric cell-cycle analysis of 10T1/2 cells; format: cell-based, mouse; conditions: for cell-cycle distribution after siRNA knockdown: siRNA 5 nM vs scrambled siRNA
[4] = system: 10T1/2 cells; test: siRNA knockdown in 10T1/2 cells, mRNA and protein levels; format: cell-based, mouse
Protocol: For siRNA experiments cells were transfected with siRNA against Gli1 (LIFE SCIENCES, siRNA ID: s66723, Sequence 5'3' Sense: […] NO: 11), Antisense: […] NO: 12)), Gli2 (LIFE SCIENCES, siRNA ID: s66726, Sequence 5'3' Sense: […] NO: 13), Antisense: […] Transfection was performed with a final concentration of 5 nM of each siRNA according to the manufacturer instructions using LIPOFECTAMINE RNAiMAX transfection reagent (LIFE TECHNOLOGIES, #3778075). 72 hours after transfection cells were harvested for RNA or protein isolation. […] Kidney tissue or cell-pellets were harvested and immediately snap frozen in liquid nitrogen. RNA was extracted according to the manufacturer instructions using the RNeasy Mini Kit (QIAGEN) and 600 ng of total RNA was reverse transcribed with iScript (BIORAD). Quantitative polymerase chain reactions were carried out with iQ-SYBR Green supermix (BIORAD) and the BIORAD CFX96 Real Time System with the C1000 Touch Thermal Cycler. […] Glyceraldehyde-3-phosphate dehydrogenase (GAPDH) was used as a housekeeping gene. Data was analyzed using the 2-ΔΔct method. Kidney tissue was snap frozen in liquid nitrogen and stored at -80° C. immediately after mice were killed. Tissue samples were homogenized in lysis buffer containing 10 mM HEPES, pH 7.4, 0.32M sucrose, 2 mM EDTA, 1 mM DTT, 1 mM PMSF and 1 protease inhibitor tablet per 10 ml of lysis buffer (ROCHE Cat. No. 11836153001). Samples were sonicated and protein concentration was determined by the Bradford Assay using BIO-RAD Protein Assay Dye (BIORAD, Cat. No. 500-0006). 10-40 μg of protein from lysates was loaded on a 7.5 or 10% polyacrylamide gel and separated by SDS electrophoresis. […] Following incubation with primary antibody blots were washed probed with respective horseradish-peroxidase conjugated secondary antibodies at 1:5000 (DAKO, Cat. No. P0447, […]) for 1 hour at room temperature and then visualized using the Western Lightning ECL kit from PERKINELMER (#NEL100001EA). Quantification of western bands was performed using ImageJ (NIH).

[5] = system: UUO kidneys; test: Unilateral ureteral obstruction (UUO) kidney fibrosis model; format: in vivo, mouse
[6] = system: human colon cancer cells; conditions: cited from earlier work
[7] = system: Gli1 and Gli2; conditions: cited from earlier work
[8] = system: 10T1/2 cells; test: Western blot of whole cell-lysate from 10T1/2 cells treated with darinaparsin; format: cell-based, mouse; conditions: darinaparsin 0.5 μM, 72 hours
Excerpt: All cell-lines used within this study were freshly ordered from ATCC and routinely checked for mycoplasma contamination in the inventors' laboratory. 10T1/2 cells (ATCC) and cultured in Basal Medium Eagle (BME, GIBCO; LIFE TECHNOLOGIES) supplemented with 10% fetal bovine serum (FBS), penicillin and streptomycin and 2 mmol/L glutamine (GIBCO). Sonic hedgehog conditioned media was produced from supernatant of confluent Cos7 cells stably transfected with pcDNA3-N-Shh or pcDNA3 control plasmid. For Western blot experiments cells were grown on 10 cm dishes, serum starved in 0.5% FBS for 12 hours and then incubated with darinaparsin (0.5 μM) or vehicle with either Shh preconditioned medium or Cos7 control media (5× i.e., 2 ml preconditioned media in 8 ml BMW 0.5% FBS) for 72 hours.
Kidney tissue was snap frozen in liquid nitrogen and stored at −80° C. immediately after mice were killed. Tissue samples were homogenized in lysis buffer containing 10 mM HEPES, pH 7.4, 0.32M sucrose, 2 mM EDTA, 1 mM DTT, 1 mM PMSF and 1 protease inhibitor tablet per 10 ml of lysis buffer (ROCHE Cat. No. 11836153001). Samples were sonicated and protein concentration was determined by the Bradford Assay using BIO-RAD Protein Assay Dye (BIORAD, Cat. No. 500-0006). 10-40 μg of protein from lysates was loaded on a 7.5 or 10% polyacrylamide gel and separated by SDS electrophoresis. Proteins were transferred to a IMMOBILON membrane (MILLIPORE) blocked in 5% milk in PBST, probed overnight at 4° C. with the primary antibodies: mouse anti-αSMA at 1:4000 (SIGMA, Cat. #A2547), rabbit anti-fibronectin at 1:4000 (ABCAM, #ab23750), rabbit anti-p21 at 1:200 (SANTA CRUZ BIOTECHNOLOGIES, #sc-471), rabbit anti-phospho-retinoblastoma(72) at 1:1000 (CELL SIGNALING #9307S, Ser780), rat anti-Gli1 at 1:1000 (R&D Systems #MAB3324), goat anti-Gli2 at 1:500 (R&D Systems #AF3635), rabbit anti-Cyclin Eat 1:200 (SANTA CRUZ #sc-481), rabbit anti-Cyclin A at 1:200 (SANTA CRUZ BIOTECHNOLOGIES #sc-751), rabbit anti-HA-Tag at 1:5000 (CELL SIGNALING #3724), mouse anti-c-myc (DSHB, Iowa, 9E 10) and rabbit anti-GAPDH at 1:4000 (BETHYL LABORATORIES, #A300-641A). Following incubation with primary antibody blots were washed probed with respective horseradish-peroxidase conjugated secondary antibodies at 1:5000 (DAKO, Cat. No. P0447, P0448, P0450) for 1 hour at room temperature and then visualized using the Western Lightning ECL kit from PERKINELMER (#NEL100001EA). Quantification of western bands was performed using ImageJ (NIH).

[9] = target: T1, Gli2 (Homo sapiens, UniProt P10070); test: Gli2 darinaparsin binding assay (GST agarose bead pull-down); conditions: 293T cells; for binding to Gli2 (pull-down of myc-tagged Gli2 with GST beads): 0.5 μM darinaparsin or vehicle
T1 construct: 293T cells were transfected with full length Gli2-myc and treated with darinaparsin (DAR) or vehicle (VEH); host or cells: Human 293T/17 (HEK 293T/17, ATCC)
T1 sequence (P10070 whole entry): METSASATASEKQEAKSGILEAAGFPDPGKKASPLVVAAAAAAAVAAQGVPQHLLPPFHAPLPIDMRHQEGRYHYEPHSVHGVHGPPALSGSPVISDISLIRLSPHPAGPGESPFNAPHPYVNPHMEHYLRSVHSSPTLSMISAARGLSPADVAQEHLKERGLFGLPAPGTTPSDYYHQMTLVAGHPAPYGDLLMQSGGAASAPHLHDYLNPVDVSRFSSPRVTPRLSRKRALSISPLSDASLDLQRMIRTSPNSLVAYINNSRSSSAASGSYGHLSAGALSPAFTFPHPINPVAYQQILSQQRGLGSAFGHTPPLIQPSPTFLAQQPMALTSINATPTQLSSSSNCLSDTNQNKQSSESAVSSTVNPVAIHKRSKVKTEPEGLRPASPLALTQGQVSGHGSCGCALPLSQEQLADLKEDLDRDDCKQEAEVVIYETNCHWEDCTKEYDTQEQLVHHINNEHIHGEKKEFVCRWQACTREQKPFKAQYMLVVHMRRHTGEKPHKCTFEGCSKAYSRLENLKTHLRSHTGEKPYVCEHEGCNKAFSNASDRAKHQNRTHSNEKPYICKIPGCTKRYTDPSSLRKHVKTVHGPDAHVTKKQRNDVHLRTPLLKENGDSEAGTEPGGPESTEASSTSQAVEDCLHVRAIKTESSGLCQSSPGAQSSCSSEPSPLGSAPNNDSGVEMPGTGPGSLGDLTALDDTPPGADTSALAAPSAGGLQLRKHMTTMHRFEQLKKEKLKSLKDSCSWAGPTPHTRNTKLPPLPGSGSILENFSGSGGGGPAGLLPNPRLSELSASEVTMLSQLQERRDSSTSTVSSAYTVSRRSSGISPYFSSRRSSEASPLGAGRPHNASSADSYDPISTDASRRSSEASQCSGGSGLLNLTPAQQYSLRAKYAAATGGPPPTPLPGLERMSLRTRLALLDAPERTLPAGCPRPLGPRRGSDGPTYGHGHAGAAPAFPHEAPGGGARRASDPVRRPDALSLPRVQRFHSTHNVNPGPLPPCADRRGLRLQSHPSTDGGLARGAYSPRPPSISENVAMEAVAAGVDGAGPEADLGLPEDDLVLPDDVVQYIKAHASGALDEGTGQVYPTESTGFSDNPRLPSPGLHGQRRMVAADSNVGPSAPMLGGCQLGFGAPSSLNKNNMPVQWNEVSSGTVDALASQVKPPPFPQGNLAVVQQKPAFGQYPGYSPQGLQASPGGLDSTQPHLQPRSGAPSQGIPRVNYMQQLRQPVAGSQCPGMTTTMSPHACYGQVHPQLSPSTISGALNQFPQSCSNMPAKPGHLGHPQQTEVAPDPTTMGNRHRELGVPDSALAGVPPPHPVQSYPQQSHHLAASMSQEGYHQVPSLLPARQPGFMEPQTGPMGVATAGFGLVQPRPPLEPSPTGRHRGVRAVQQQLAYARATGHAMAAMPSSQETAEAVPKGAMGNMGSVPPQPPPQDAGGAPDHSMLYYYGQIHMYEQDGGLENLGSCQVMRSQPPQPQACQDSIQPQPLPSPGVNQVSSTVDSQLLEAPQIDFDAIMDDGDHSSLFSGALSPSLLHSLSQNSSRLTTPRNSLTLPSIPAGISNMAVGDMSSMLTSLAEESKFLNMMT
Protocol: Human 293T/17 (HEK 293T/17, freshly ordered from ATCC) were grown in a 10 cm cell-culture dish until 80% confluent and transfected with pCS2-MT Gli2 FL kindly provided by Dr. Roessler (49) (ADDGENE Plasmid 17648: pCS2-MT GLI2 FL) using Lipofectamine 2000 (LIFE TECHNOLOGIES) according to the manufacturer instructions. 72 hours after transfection the cells were treated with 0.5 μM darinaparsin or vehicle in DMEM 10% FBS for 12 hours, thereafter cells were resuspended in cold (4° C.) PBS and washed twice with PBS. After centrifugation (1500 rpm, 5 minutes) 1 ml of IP-Lysis Buffer (THERMO SCIENTIFIC)+proteinase inhibtior (ROCHE, #1183617000T) was added to the cell pellet and the suspension was homogenized using an insulin syringe. After centrifugation of the protein-solution (15 min, 12000 rpm) the supernatant was transferred into a fresh tube, an aliquot of 100 μl was taken as input control (FIG. 24) and the solution was incubated with 50 μl GST-Agarose beads (PIERCE GST Agarose #20211, THERMO SCIENTIFIC) for 4 hours on a rotator at 4° C. Thereafter the bead-protein solution was centrifuged (5000 rpm, 3 min) and the supernatant was taken as outflow control (FIG. 24), the agarose beads were washed three times by adding 1 ml of the above mentioned IP-Lysis buffer containing proteinase inhibitors followed by vortexing and centrifugation (5000 rpm, 3 min), the supernatant after each centrifugation was discarded. After 3 washes, the GST beads were cooked at 96° C. for 7 minutes in 100 μl Laemmli buffer (BIO-RAD). All protein samples (input, outflow and the final GST bead purification solution) were analysed by western blot with an antibody against c-myc (mouse monoclonal, 9E 10, DSHB, Iowa) the membrane was stained with Ponceau-S (SIGMA) to show specificity (FIG. 6H).

[10] = system: kidney; conditions: mouse, in vivo
[11] = cited from earlier work
[12] = system: ATO resistant myeloma cell-lines; conditions: cited from earlier work
[13] = siRNA 5 nM, 72 hours after transfection
[14] = GANT61 after UUO, UUO kidneys vs vehicle
[15] = GANT61 after UUO, listed as Gant61

## TGF-β
[1]
  αSMA expression: acquired expression
[1]; listed as TGFβ
  αSMA expression: robust upregulation
[1]; bone marrow-derived Gli1+ MSC purified by FACS
  induction of αSMA: 45 ×

## CS(=O)(=O)c1ccc(C(=O)Nc2ccc(Cl)c(-c3ccccn3)c2)c(Cl)c1 [GDC-0449]
[2]
  fibrosis severity in bleomycin induced lung fibrosis: did not show this effect

## siRNA directed against Gli2: siRNA ID s66726, SEQ ID NO: 13 and 14 (chain 1 GGAAAACUUCAACAAUACATT; chain 2 UGUAUUGUUGAAGUUUUCCAG; chemistry not given here)
[3]
  cell-cycle distribution after siRNA knockdown: G0/G1 arrest
[4]; [13]
  Gli2 expression: reduced
  mRNA and protein levels of Gli1: reduced
[4]; siRNA knockdown, western blot
  p21 level: increased levels
  phosphorylated retinoblastoma (Ser780) level: reduced levels

## CN(C)c1ccccc1CN1CCCN(Cc2ccccc2N(C)C)C1c1ccncc1 [GANT61]
[5]; GANT61 50 mg/kg s.c. at day 1, 2, 3, 5, 7 and 9 after UUO, vs vehicle, 50 mg/kg
  interstitial fibrosis (scoring of trichrome stained sections): significantly reduced; also recorded: significantly less fibrosis
[5]; GANT61 after UUO
  Gli1 protein level of UUO kidneys: significantly reduced
  Gli2 protein level of UUO kidneys: significantly reduced
  mRNA expression of hedgehog readout Gli1: reduced
  mRNA expression of hedgehog readout Ptch1: reduced
[5]; [14]
  expression of fibrotic readout Coiled: significantly reduced; also recorded: significant lower expression
  expression of fibrotic readout fibronectin: significantly reduced; also recorded: significant lower expression
  expression of fibrotic readout α-SMA: significantly reduced; also recorded: significant lower expression
[5]; [15]
  mRNA expression of hedgehog readout Gli1: significant reduction
  mRNA expression of hedgehog readout Ptch1: significant reduction
[2]
  fibrosis severity in bleomycin induced lung fibrosis: decreased fibrosis severity
[6]
  cell cycle of human colon cancer cells: induced a G0/G1 arrest
  p21 in human colon cancer cells: upregulation

## Arsenic trioxide [ATO]
[7]
  antagonism of Gli1 and Gli2: antagonize both Gli1 and Gli2

## C[As](C)SC[C@H](NC(=O)CC[C@H](N)C(=O)O)C(=O)NCC(=O)O [darinaparsin, S-dimethylarsino-glutathione]
[3]; 10T1/2 cells with retroviral full-length Gli2 vs control virus
  cell-cycle effect of darinaparsin upon Gli2 overexpression: rescued the cell-cycle effect; also recorded: rescues the cell cycle effect
[3]; darinaparsin 0.5 μM vs vehicle, BrdU/7AAD flow cytometry
  cell-cycle distribution of 10T1/2 cells: induces a G0/G1 cell cycle arrest
[8]
  Gli1 protein level: reduced
  Gli2 protein level: reduced
  p21 level: upregulation
  p-Rb level: decreased levels
[9]; 0.5 μM darinaparsin
  enrichment of other nonspecific proteins (Ponceau staining): did not result in enrichment
[9]
  binding to Gli2 (pull-down of myc-tagged Gli2 with GST beads): binds directly to Gli2
[9]; listed as DAR
  binding to Gli2 (pull-down of myc-tagged Gli2 with GST beads): able to pull down Gli2
[5]; mouse, in vivo
  fibrotic readouts: substantial reductions
[10]
  BUN levels: lower
  interstitial fibrosis: reduced
[11]; compared to ATO
  systemic toxicity: significantly lower
[11]; higher than ATO
  tolerated maximum dose compared to ATO: 50 fold
[11]; reported by Tian et al.
  side effect on fast cycling cell populations as the bone marrow or intestine: no significant side effect
[12]
  susceptibility of ATO resistant myeloma cell-lines: susceptible

## siRNA against Gli1: siRNA ID s66723, SEQ ID NO: 11 and 12 (chain 1 GCAGGUCUCCUAUCCUGAUTT; chain 2 NAUCAGGAUAGGAGACCUGCTG; chemistry not given here)
[3]
  cell-cycle distribution after siRNA knockdown: had no effect
[4]; [13]
  mRNA and protein levels of Gli1: reduced
